Reference: paper PMC8041284, “Tunable Methacrylamides for Covalent Ligand Directed Release Chemistry” (Journal of the American Chemical Society, 2021)
Where a SMILES comes first, the peptide text is derived from it. [ ]: non-standard residue; d: D form. The star is where a group is joined. Benzoyl(4-tBu) = CC(C)(C)c1ccc(C(=O)*)cc1; Lys(Et2) = CCN(CC)CCCC[C@H](N)C(=O)O

Molecular target: BTK (Homo sapiens, UniProt Q06187)
Test: biochemical
Details: read-out: BTK inhibition (%)

BTK, sequence (Q06187 402-655 limits assumed): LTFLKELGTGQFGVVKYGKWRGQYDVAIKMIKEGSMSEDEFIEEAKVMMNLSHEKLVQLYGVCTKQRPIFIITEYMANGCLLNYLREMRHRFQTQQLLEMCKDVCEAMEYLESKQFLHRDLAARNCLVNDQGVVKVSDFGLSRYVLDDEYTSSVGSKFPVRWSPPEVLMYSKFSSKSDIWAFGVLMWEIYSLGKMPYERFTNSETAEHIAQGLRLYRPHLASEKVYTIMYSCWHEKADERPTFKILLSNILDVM

SMILES	inhibition at 10 µM [%]
O=P(O)(O)Oc1cccc2ccccc12 [PCM-0216167]	-4.6
Cn1c(COP(=O)(NCCBr)NCCBr)cnc1[N+](=O)[O-] [PCM-0214844]	-4.7

Same assay, conditions: read-out: BTK inhibition (%), 0.75 uM BTK, […] probe 3l, 15 min preincubation

SMILES	inhibition at 10 µM [%]
CC(=O)CC/C=C(\C)CC/C=C(\C)CC/C=C(\C)CCC=C(C)C [PCM-0215116]	2.3
Cc1nc(-c2ccc(OCC(C)C)c(C#N)c2)sc1C(=O)O [PCM-0090390]	-3.4
CCCc1cc2c(N3CCN(C4=NCC(C)(C)S4)CC3)ncnc2s1 [PCM-0215393]	-24.7
CCC(CC)n1ccc2c(C(=O)NCc3c(C)cc(C)[nH]c3=O)cc(C#N)cc21 [PCM-0215402]	1.5
CC1CCCCCCCCCCCCC(=O)C1 (centres unmarked) [PCM-0215929]	0.7
NC(=O)CC[C@H](N)C(=O)O [PCM-0065292]	17.9
C=CC[N+]1([C@H]2C[C@H]3[C@@H]4CC[C@H]5C[C@H](O)[C@@H](N6CCOCC6)C[C@]5(C)[C@H]4CC[C@]3(C)[C@H]2OC(C)=O)CCCC1 [PCM-0214619]	-24.1
CO/N=C(\C(=O)N[C@@H]1C(=O)N2C(C(=O)O)=C(CSc3nc(C)c(CC(=O)O)s3)CS[C@H]12)c1csc(N)n1 [PCM-0215155]	-2.3
CNC[C@H](O)c1cccc(O)c1 [PCM-0064848]	-20.2
C=CC[S@+]([O-])C[C@H](N)C(=O)O [PCM-0216303]	-9.3
C=C(C)[C@@H]1CCC2=CC(=O)C[C@@H](C)[C@]2(C)C1 [PCM-0216368]	12.4
Nc1ccc(S(N)(=O)=O)cc1 [PCM-0086364]	-9.3
CCS(=O)(=O)N1CC(CC#N)(n2cc(-c3ncnc4[nH]ccc34)cn2)C1 [PCM-0095473]	-20
CO[C@H]1C[C@H](O[C@@H]2/C(C)=C/C[C@@H]3C[C@@H](C[C@]4(CC[C@H](C)[C@@H](C5CCCCC5)O4)O3)OC(=O)[C@@H]3C=C(C)/C(=N/O)[C@H]4OC/C(=C\C=C\[C@@H]2C)[C@]43O)O[C@@H](C)[C@@H]1O [PCM-0216231]	41.7
CCN(CC)CCCC[C@H](NC(=O)[C@H](CC(C)C)NC(=O)[C@H](C)NC(=O)[C@H](Cc1ccccc1)NC(=O)c1ccc(C(C)(C)C)cc1)C(=O)N[C@@H](CO)C(=O)OC [PCM-0215741] ({Benzoyl(4-tBu)}-FAL[Lys(Et2)]S-OMe)	-16.2
O=C(Nc1ccccc1)N1CCN(c2nc(-c3ccccc3)ns2)CC1 [PCM-0010620]	-3.9
O=c1c(-c2ccc(O)cc2)coc2cc(O)ccc12 [PCM-0065064]	-7.8
CO[C@H]1/C=C/O[C@@]2(C)Oc3c(C)c(O)c4c(O)c(c5c(nc6cc(C)ccn65)c4c3C2=O)NC(=O)/C(C)=C\C=C\[C@H](C)[C@H](O)[C@@H](C)[C@@H](O)[C@@H](C)[C@H](OC(C)=O)[C@@H]1C [PCM-0086183]	10.1
COc1cccc(CCc2ccccc2OCC(CN(C)C)OC(=O)CCC(=O)O)c1 (centres unmarked) [PCM-0214923]	-22.6
COC(=O)[C@H](CCSC)NC(=O)c1ccc(NC[C@@H](N)CS)cc1-c1ccccc1 [PCM-0215424]	-57.9
O=C(NO)c1cccc(C(=O)NCCc2ccccc2)c1 [PCM-0215456]	10
CNc1cc(-c2cccc(Cl)c2Cl)nc(N)n1 [PCM-0215511]	-13.1
COc1cc2c(cc1OC)[C@@H](Cc1ccc(Oc3cc(C[C@@H]4c5cc(OC)c(OC)cc5CCN4C)ccc3O)cc1)N(C)CC2 [PCM-0216529]	-9.3
O=C(NN=Cc1ccc(O)c(O)c1)c1cc2ccccc2cc1O [PCM-0215235]	32.4
O=C1NC(=O)/C(=C/c2ccc(-c3ccc(F)cc3O)o2)S1 [PCM-0064686]	82.8
NC[C@H](CC(=O)O)c1ccc(Cl)cc1 [PCM-0095558]	-12.8
NC(=O)Nc1sc(-c2ccc(F)cc2)cc1C(N)=O [PCM-0095452]	96.6

SMILES	inhibition at 10 µM [%]
NNC(=O)c1ccncc1 [PCM-0085769]	2.3
Cc1nc(N)sc1-c1ccnc(Nc2ccc(N3CCOCC3)cc2)n1 [PCM-0095025]	57.2
CC(C)c1cnn2c(NCc3ccccc3)cc(NCCCCCCN)nc12 [PCM-0095134]	-25.5
COc1ccc2cc1Oc1ccc(cc1)C[C@H]1c3cc(c(OC)cc3CCN1C)Oc1c(O)c(OC)cc3c1[C@@H](C2)N(C)CC3 [PCM-0214869]	0.8
OCCOCCN1CCN(C2=Nc3ccccc3Sc3ccccc32)CC1 [PCM-0086113]	-4.7
O=C(/C=C/c1ccc2ccccc2n1)c1ccncc1 [PCM-0215310]	11.7
Cc1cc(=O)c2c(O)c3c(cc2o1)OC(C)(C)[C@@H](O[C@@H]1O[C@H](CO)[C@@H](O)[C@H](O)[C@H]1O)C3 [PCM-0216445]	-30.1
CCOC(=O)C1=C(C)NC(C)=C(C(=O)OCC)C1c1ccccc1/C=C/C(=O)OC(C)(C)C [PCM-0085989]	16.3
CCOC(=O)c1ccc(C#Cc2ccc3c(c2)C(C)(C)CCS3)nc1 [PCM-0095130]	-16.6
C[C@@H](O)[C@H]1C(=O)N2C(C(=O)O)=C([C@H]3CCCO3)S[C@H]12 [PCM-0215154]	-2.3
COC(=O)N[C@H](C(=O)N[C@@H](Cc1ccccc1)[C@@H](O)CN(Cc1ccc(-c2ccccn2)cc1)NC(=O)[C@@H](NC(=O)OC)C(C)(C)C)C(C)(C)C [PCM-0095133]	-10.9
Cc1ccc(NCCN(C)CCNc2ccnc3cc(Cl)ccc23)c2c(=O)c3ccccc3sc12 [PCM-0215874]	6.8
COc1cc(-c2oc3cc(O)cc(O)c3c(=O)c2O)ccc1O [PCM-0216402]	73.4
CC(C)(O)[C@@H]1CC[C@](C)([C@H]2[C@@H](O)C[C@@]3(C)[C@@H]4C[C@H](O[C@@H]5O[C@H](CO)[C@@H](O)[C@H](O)[C@H]5O)[C@H]5C(C)(C)[C@@H](O[C@@H]6OC[C@@H](O)[C@H](O)[C@H]6O)CC[C@@]56C[C@@]46CC[C@]23C)O1 [PCM-0215009]	12.5
CC1(C)[C@@H]2CC[C@@]1(C)[C@@H](O)C2 [PCM-0214946]	3.1
Nc1ncnc2c1ncn2[C@H]1C[C@H](O)[C@@H](CO)O1 [PCM-0101923]	15.4
O=C(CCCCc1ccc2c(c1)OCO2)N1CCCCC1 [PCM-0216131]	-17.8
CC(=O)O [PCM-0215080]	-2.3
O=c1c2ccccc2oc2ccccc12 [PCM-0091091]	-21
Oc1ccc(Nc2nc(-c3ccc(Cl)cc3)cs2)cc1 [PCM-0095692]	84.8
O=Cc1ccc(O)c(O)c1 [PCM-0215162]	5.4
COc1cc(C=O)c([N+](=O)[O-])cc1OC [PCM-0216182]	-13.9
COc1ccnc(C[S+]([O-])c2nc3ccc(-n4cccc4)cc3[nH]2)c1C (centres unmarked) [PCM-0214937]	25.7
Cc1ccc(-c2c(-c3nn(C)c4ncnc(N5CC[C@H](N6CCCCC6)C5)c34)cnn2C)cc1 [PCM-0095421]	-2.3
O=C1Cc2c([nH]c3ccc(Br)cc23)-c2ncccc2N1 [PCM-0215289]	-2.1
Clc1ccc(C(Cn2ccnc2)OCc2ccc(Sc3ccccc3)cc2)c(Cl)c1 (centres unmarked) [PCM-0095311]	100
CN1CCC(NC(=O)c2cc(-c3c(O)cc(O)cc3Oc3ccc([N+](=O)[O-])cc3)on2)CC1 [PCM-0215304]	-10.8
